Test systems include COLO 205 colon; LOX IMVI melanoma; NCI-H226 lung; EKVX NSCLC; A549 NSCLC; 786-0 renal; RPMI-8226 leukemia; SF-539 CNS; SF-295 CNS; OVCAR-4 ovarian; T-47D breast; IGROV1 ovarian; NCI/ADR-RES ovarian; MDA-MB-231 breast; BT-549 breast.
Test in all cases: NCI anticancer screen, dose series, 48 h

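Five compound concentrations were applied to cells in 96-well plates for 48 hours; endpoints were derived by simple linear interpolation of the resulting dose-response curve. TGI is the concentration that stops growth completely.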

As to `CCCN(CCC)C(=O)Cc1c2n(c3ccccc13)Cc1ccccc1-2`, the TGI with COLO 205 colon, with LOX IMVI melanoma, in the assay on NCI-H226 lung, with EKVX NSCLC, in the assay with A549 NSCLC and in the assay with 786-0 renal was over 100 µM each time. The TGI in the assay on RPMI-8226 leukemia, in the assay with SF-539 CNS, in the assay on SF-295 CNS and in the assay on OVCAR-4 ovarian was over 100 µM in each case.

Turning to `CCOC(=O)c1ccc(Nc2nc3ccc(C(F)(F)F)cc3nc2-c2ccccc2)cc1`, the TGI is 87.1 µM in the assay with T-47D breast; over 100 µM in the assay on LOX IMVI melanoma; over 100 µM in the assay with IGROV1 ovarian; over 100 µM with NCI-H226 lung; over 100 µM in the assay with EKVX NSCLC; over 100 µM with A549 NSCLC. In addition, the TGI with 786-0 renal, with RPMI-8226 leukemia, in the assay on SF-539 CNS, with SF-295 CNS and in the assay with NCI/ADR-RES ovarian was over 100 µM in each case.

Regarding `CC(C)(C)OC(=O)/C=C/C(=O)O/C=C/[N+](=O)[O-]`, the TGI with COLO 205 colon, in the assay on LOX IMVI melanoma, in the assay with IGROV1 ovarian, with NCI-H226 lung, with EKVX NSCLC and in the assay with A549 NSCLC was over 100 µM throughout. Further, the TGI in the assay with 786-0 renal, in the assay on RPMI-8226 leukemia, with SF-539 CNS, in the assay on SF-295 CNS and in the assay with MDA-MB-231 breast was over 100 µM throughout.

In the case of `N#Cc1nc(Cc2ccccc2)oc1N`, the TGI in the assay with COLO 205 colon, with BT-549 breast, with T-47D breast, with LOX IMVI melanoma, in the assay with IGROV1 ovarian and in the assay on NCI-H226 lung was over 100 µM throughout. For the same molecule, the TGI in the assay with EKVX NSCLC, in the assay on A549 NSCLC, in the assay with 786-0 renal, in the assay with RPMI-8226 leukemia, in the assay with SF-539 CNS and with SF-295 CNS was over 100 µM throughout. For the same molecule, the TGI in the assay on OVCAR-4 ovarian and in the assay on MDA-MB-231 breast was over 100 µM in each case.

For the molecule `C/C=C/OC1C(C2COC(C)(C)O2)OC2OC(C)(C)OC21` (stereo not drawn), the TGI with T-47D breast, with LOX IMVI melanoma, in the assay with IGROV1 ovarian, in the assay with EKVX NSCLC, in the assay on A549 NSCLC and in the assay with 786-0 renal was over 100 µM throughout. Further, the TGI with RPMI-8226 leukemia, in the assay on SF-539 CNS, in the assay with SF-295 CNS, in the assay on NCI/ADR-RES ovarian, with OVCAR-4 ovarian and in the assay on MDA-MB-231 breast was over 100 µM in each case.

For `CSc1cc(Cl)c(C)cc1S(=O)(=O)NC(=O)NNc1ccccn1`, the TGI with COLO 205 colon, in the assay on T-47D breast, with LOX IMVI melanoma, in the assay on IGROV1 ovarian, in the assay with NCI-H226 lung and in the assay with EKVX NSCLC was over 100 µM throughout. Moreover, the TGI in the assay on A549 NSCLC, in the assay with 786-0 renal, in the assay with SF-539 CNS, in the assay on SF-295 CNS, in the assay on NCI/ADR-RES ovarian and in the assay with OVCAR-4 ovarian was over 100 µM each time. Further, in the assay on MDA-MB-231 breast, the TGI is over 100 µM.

`CCCC(=O)N[C@@H](Cc1cc(I)c(O)c(I)c1)C(=O)NCCCNCCCCNCCCNC(=O)[C@@H](N)CCCN=C(N)N`: the TGI in the assay on COLO 205 colon, in the assay with LOX IMVI melanoma, in the assay with IGROV1 ovarian, with NCI-H226 lung, in the assay on EKVX NSCLC and with A549 NSCLC was over 100 µM in each case. The TGI in the assay with 786-0 renal, in the assay with RPMI-8226 leukemia and in the assay on SF-539 CNS was over 100 µM each time.

Take `COC(=O)[C@H]1ON2O[C@@H](O[C@H]3CCCC[C@@H]3C(C)(C)c3ccccc3)C[C@@H]3CC[C@H]1[C@@]32C`: the TGI in the assay with COLO 205 colon, with T-47D breast, in the assay on LOX IMVI melanoma, in the assay with IGROV1 ovarian, in the assay on NCI-H226 lung and with EKVX NSCLC was over 100 µM throughout. For the same molecule, the TGI in the assay with A549 NSCLC, with 786-0 renal, in the assay with RPMI-8226 leukemia, in the assay with SF-295 CNS and in the assay on NCI/ADR-RES ovarian was over 100 µM in each case.

With `Cn1c2ccccc2n2c3ccccc3c(=S)c(C#N)c12`, the TGI in the assay with BT-549 breast, in the assay on LOX IMVI melanoma, in the assay on IGROV1 ovarian, with NCI-H226 lung, in the assay with EKVX NSCLC and with A549 NSCLC was over 100 µM throughout. Further, the TGI with 786-0 renal, in the assay with RPMI-8226 leukemia, with SF-539 CNS, with SF-295 CNS, with NCI/ADR-RES ovarian and in the assay on OVCAR-4 ovarian was over 100 µM throughout.

As for `CSc1nc(-c2cc3c(c(SC)n2)CCC3)cc2c1CCC2`, the TGI in the assay on COLO 205 colon, with BT-549 breast, in the assay with NCI-H226 lung, with EKVX NSCLC, in the assay with A549 NSCLC and in the assay on 786-0 renal was over 100 µM throughout. Also, the TGI in the assay with RPMI-8226 leukemia, with SF-539 CNS, in the assay with SF-295 CNS, in the assay with NCI/ADR-RES ovarian, with OVCAR-4 ovarian and with MDA-MB-231 breast was over 100 µM throughout.

With `CSCCCNC(=O)c1csc([C@@H](CSC)NC(=O)CCNC(=O)[C@@H](NC(=O)OCC(Br)(Br)Br)C(C)O)n1` (stereo partly drawn), the TGI with COLO 205 colon, in the assay with BT-549 breast, in the assay on LOX IMVI melanoma, with IGROV1 ovarian, with NCI-H226 lung and in the assay with EKVX NSCLC was over 100 µM in each case. Besides, the TGI with A549 NSCLC, in the assay with 786-0 renal, in the assay with SF-539 CNS, with SF-295 CNS, in the assay with NCI/ADR-RES ovarian and with OVCAR-4 ovarian was over 100 µM each time. In the assay on MDA-MB-231 breast, this molecule registered a TGI of over 100 µM.

These data come from PubChem BioAssay (NCI).
